pEC50, pIC50: −log10 of the molar value. Like-named read-outs stand apart in the source and are kept apart here.

One may read the pEC50 as the negative decadic logarithm of the EC50, by convention in mol/L. As a reminder, the pIC50 is the negative decadic logarithm of the IC50, by convention in mol/L. The low end stands for a large IC50, the high end for a small IC50.

The target in one assay is human PD-L1 (Homo sapiens (Human), UniProt Q9NZQ7). Briefly: T cell activation luciferase reporter cell culture system (T Cell Activation Assay). It is filed as cell-based. For orientation: In a reporter assay the amount or activity of a reporter protein is the signal.
Assay [1] concerns the target PD-L1 His protein / PD-1 Fc protein (Homo sapiens (Human), UniProt Q9NZQ7). Put plainly: HTRF Assay (PD-1/PD-L1 interaction). The class given is binding. (Time-resolved FRET reads energy transfer from a long-lived donor to a nearby acceptor.)
Setting [2] is: luciferase reporter assay, PD-L1 aAPC/CHO-K1 cells with PD-1 effector Jurkat T cells.

Sequence of PD-L1 His protein / PD-1 Fc protein (Q9NZQ7 19-238): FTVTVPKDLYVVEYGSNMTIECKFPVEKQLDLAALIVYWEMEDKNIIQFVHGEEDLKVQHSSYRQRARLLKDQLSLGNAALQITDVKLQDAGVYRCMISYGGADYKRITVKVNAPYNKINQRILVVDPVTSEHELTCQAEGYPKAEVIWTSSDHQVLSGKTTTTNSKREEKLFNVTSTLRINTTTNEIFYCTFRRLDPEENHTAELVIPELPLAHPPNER
Sequence of human PD-L1 (Q9NZQ7 19-290): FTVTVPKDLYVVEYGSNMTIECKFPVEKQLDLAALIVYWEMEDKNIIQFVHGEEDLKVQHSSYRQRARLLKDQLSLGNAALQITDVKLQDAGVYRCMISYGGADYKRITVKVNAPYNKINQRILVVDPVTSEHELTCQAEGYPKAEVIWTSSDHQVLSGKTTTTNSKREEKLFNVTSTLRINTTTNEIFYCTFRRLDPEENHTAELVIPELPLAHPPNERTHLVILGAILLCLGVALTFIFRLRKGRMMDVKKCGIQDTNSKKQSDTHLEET

Compound `COc1cc(-c2nccc(-c3cccc(-c4ccc(CNCCNC(C)=O)c(OC)n4)c3Cl)c2Cl)ccc1CNCCNC(C)=O` had a pEC50 on human PD-L1 (setting [2]) of 7.15. The pIC50 in assay [1] (PD-L1 His 6 nM, PD-1 Fc 6 nM) is 8.86.

The compound `COc1cc(-c2nccc(-c3cccc(-c4ccc(CN(C)C5CCN(C(C)=O)CC5)c(OC)n4)c3Cl)c2Cl)ccc1CNC1CCN(C(C)=O)CC1` showed a pEC50 on human PD-L1 (setting [2]) of 7.31. Further, the pIC50 in assay [1] (PD-L1 His 6 nM, PD-1 Fc 6 nM) was 8.51.

With “1-(6-((6-(2-Chloro-3-(3-chloro-2-(3-methoxy-4-((6-(2-methoxyacetyl)-2,6-diazaspiro[3.3]heptan-2-yl)methyl)phenyl)pyridin-4-yl)phenyl)-2-methoxypyridin-3-yl)methyl)-2,6-diazaspiro[3.3]heptan-2-yl)-2-methoxyethan-1-one [Example 594]”, the pEC50 at human PD-L1 was 7.47. The compound also had a pIC50 in assay [1] of 9.77.

`COc1nc(-c2ccnc(-c3cccc4c3CC[C@@H]4Oc3nc(OC)c(CNC[C@@H]4CCC(=O)N4)cc3C(F)(F)F)c2Cl)ccc1CNC1CCN(C(C)=O)CC1` [Example 544, (S)-5-((((6-(((S)-4-(5-(((1-acetylpiperidin-4-yl)amino)methyl)-3′-chloro-6-methoxy-[2,4′-bipyridin]-2′-yl)-2,3-dihydro-1H-inden-1-yl)oxy)-2-methoxy-5-(trifluoromethyl)pyridin-3-yl)methyl)amino)methyl)pyrrolidin-2-one] had a pIC50 in assay [1] (PD-L1 His 6 nM, PD-1 Fc 6 nM) of 9.10.

Consider `COc1cc(-c2ncnc(-c3cccc(-c4ccc(CN5CC6(CNC(=O)C6)C5)c(OC)n4)c3Cl)c2OC)ccc1CN1CC2(CNC(=O)C2)C1` [Example 727, 2-((6-(2-Chloro-3-(5-methoxy-6-(3-methoxy-4-((7-oxo-2,6-diazaspiro[3.4]octan-2-yl)methyl)phenyl)pyrimidin-4-yl)phenyl)-2-methoxypyridin-3-yl)methyl)-2,6-diazaspiro[3.4]octan-7-one], for which the pEC50 on human PD-L1 (setting [2]) is ≤ 5.00.

With `COc1cc(-c2ncnc(-c3cccc(-c4ccc(CNCCO)c(OC)n4)c3Cl)c2OC)ccc1CNCCO` [Example 728, 2-((4-(6-(2-Chloro-3-(5-(((2-hydroxyethyl)amino)methyl)-6-methoxypyridin-2-yl)phenyl)-5-methoxypyrimidin-4-yl)-2-methoxybenzyl)amino)ethan-1-ol], the pEC50 at human PD-L1 (setting [2]) is ≤ 5.00.

On to `CNCc1ccc(-c2ccnc(-c3cccc4c3CCC[C@@H]4Nc3nc(OC)c(CNC)cc3C(F)(F)F)c2Cl)nc1OC` [Example 732, (S)—N-(5-(3′-Chloro-6-methoxy-5-((methylamino)methyl)-[2,4′-bipyridin]-2′-yl)-1,2,3,4-tetrahydronaphthalen-1-yl)-6-methoxy-5-((methylamino)methyl)-3-(trifluoromethyl)pyridin-2-amine], for which the pEC50 at human PD-L1 (setting [2]) was ≤ 5.00.

Compound `COc1cc(-c2nccc(-c3cccc(NC(=O)c4ccc(CNCCO)cn4)c3Cl)c2Cl)ccc1CNC1CCN(C(C)=O)CC1` [Example 733, N-(3-(2-(4-(((1-Acetylpiperidin-4-yl)amino)methyl)-3-methoxyphenyl)-3-chloropyridin-4-yl)-2-chlorophenyl)-5-(((2-hydroxyethyl)amino)methyl)picolinamide] gave a negative-log EC50 (pEC50) on human PD-L1 (setting [2]) of 7.54.

As to `COc1cc(-c2ncnc(-c3cccc(-c4ccc(CNC5CCOCC5)c(OC)n4)c3Cl)c2OC)ccc1CNC1CCOCC1` [Example 734, N-((6-(2-Chloro-3-(5-methoxy-6-(3-methoxy-4-(((tetrahydro-2H-pyran-4-yl)amino)methyl)phenyl)pyrimidin-4-yl)phenyl)-2-methoxypyridin-3-yl)methyl)tetrahydro-2H-pyran-4-amine], on human PD-L1 (setting [2]), the negative-log EC50 (pEC50) is ≤ 5.00.

On to `COc1cc(-c2nccc(-c3cccc4c3CCC[C@@H]4Nc3nc(OC)c(CNC[C@H](C)O)cc3C(F)(F)F)c2Cl)ccc1CNC[C@@H]1CCC(=O)N1` [Example 736, (S)-5-(((4-(3-Chloro-4-((S)-5-((5-((((S)-2-hydroxypropyl)amino)methyl)-6-methoxy-3-(trifluoromethyl)pyridin-2-yl)amino)-5,6,7,8-tetrahydronaphthalen-1-yl)pyridin-2-yl)-2-methoxybenzyl)amino)methyl)pyrrolidin-2-one], for which the pEC50 on human PD-L1 (setting [2]) was ≤ 5.00.

On to `COc1cc(-c2ncnc(-c3cccc(-c4ccc(CN[C@H]5C[C@@H](O)C5)c(OC)n4)c3Cl)c2Cl)ccc1CN1CC2(CNC(=O)C2)C1` [Example 737, 2-(4-(5-Chloro-6-(2-chloro-3-(5-((((1s,3s)-3-hydroxycyclobutyl)amino)methyl)-6-methoxypyridin-2-yl)phenyl)pyrimidin-4-yl)-2-methoxybenzyl)-2,6-diazaspiro[3.4]octan-7-one], for which, at human PD-L1 (setting [2]), the pEC50 is 6.96.

`COc1nc(-c2nccc(-c3cccc(NC(=O)c4cn(C)c(=O)n(C)c4=O)c3Cl)c2Cl)ccc1CNC[C@@H]1CCC(=O)N1` [Example 738, (S)—N-(2-Chloro-3-(3-chloro-6′-methoxy-5′-((((5-oxopyrrolidin-2-yl)methyl)amino)methyl)-[2,2′-bipyridin]-4-yl)phenyl)-1,3-dimethyl-2,4-dioxo-1,2,3,4-tetrahydropyrimidine-5-carboxamide] gave a pEC50 on human PD-L1 (setting [2]) of 6.57.

On human PD-L1 (setting [2]), `COc1nc(-c2nccc(-c3cccc(NC(=O)c4cn(C)c(=O)n(C)c4=O)c3Cl)c2Cl)ccc1CNC[C@H](C)O` [Example 739, (S)—N-(2-Chloro-3-(3-chloro-5′-(((2-hydroxypropyl)amino)methyl)-6′-methoxy-[2,2′-bipyridin]-4-yl)phenyl)-1,3-dimethyl-2,4-dioxo-1,2,3,4-tetrahydropyrimidine-5-carboxamide] gave a pEC50 of 5.73.

`COc1cc(-c2ncnc(-c3cccc(-c4ccc(CN[C@H]5C[C@H](O)C5)c(OC)n4)c3Cl)c2Cl)ccc1CN1CC2(CNC(=O)C2)C1` [Example 740] showed a negative-log EC50 (pEC50) at human PD-L1 (setting [2]) of 7.09.

As for `CNCc1ccc(-c2nccc(-c3cccc4c3CCC[C@@H]4Nc3nc(OC)c(CNC)cc3C(F)(F)F)c2Cl)cc1OC` [Example 741, (S)—N-(5-(3-Chloro-2-(3-methoxy-4-((methylamino)methyl)phenyl)pyridin-4-yl)-1,2,3,4-tetrahydronaphthalen-1-yl)-6-methoxy-5-((methylamino)methyl)-3-(trifluoromethyl)pyridin-2-amine], on human PD-L1 (setting [2]), the negative logarithm of the EC50 (pEC50) is ≤ 5.00.

The compound `COc1cc(-c2ncnc(-c3cccc(-c4ccc(CNC[C@@H]5CCC(=O)N5)c(OC)n4)c3Cl)c2Cl)ccc1CN1CC2(CNC(=O)C2)C1` [Example 742, (S)-2-(4-(5-Chloro-6-(2-chloro-3-(6-methoxy-5-((((5-oxopyrrolidin-2-yl)methyl)amino)methyl)pyridin-2-yl)phenyl)pyrimidin-4-yl)-2-methoxybenzyl)-2,6-diazaspiro[3.4]octan-7-one] showed a pEC50 on human PD-L1 (setting [2]) of 7.54.

`COc1cc(-c2ncnc(-c3cccc(-c4ccc(CN5CC6(CCC(=O)N6)C5)c(OC)n4)c3Cl)c2OC)ccc1CN1CC2(CCC(=O)N2)C1` [Example 743, 2-((6-(2-Chloro-3-(5-methoxy-6-(3-methoxy-4-((6-oxo-2,5-diazaspiro[3.4]octan-2-yl)methyl)phenyl)pyrimidin-4-yl)phenyl)-2-methoxypyridin-3-yl)methyl)-2,5-diazaspiro[3.4]octan-6-one]: on human PD-L1 (setting [2]), the pEC50 is ≤ 5.00.

With `COc1cc(-c2nccc(-c3cccc(NC(=O)c4ccc(CNCCO)cn4)c3C)c2Cl)ccc1CN1CC2(CNC(=O)C2)C1` [Example 744, N-(3-(3-Chloro-2-(3-methoxy-4-((7-oxo-2,6-diazaspiro[3.4]octan-2-yl)methyl)phenyl)pyridin-4-yl)-2-methylphenyl)-5-(((2-hydroxyethyl)amino)methyl)picolinamide], the pEC50 at human PD-L1 (setting [2]) was 6.81.

For `COc1cc(-c2nccc(-c3cccc(NC(=O)c4ccc(CNC[C@@H]5CCC(=O)N5)cn4)c3C)c2Cl)ccc1CNC1CCN(C(C)=O)CC1` [Example 747, (S)—N-(3-(2-(4-(((1-acetylpiperidin-4-yl)amino)methyl)-3-methoxyphenyl)-3-chloropyridin-4-yl)-2-methylphenyl)-5-((((5-oxopyrrolidin-2-yl)methyl)amino)methyl)picolinamide], on human PD-L1 (setting [2]), the pEC50 is 6.08.

On human PD-L1 (setting [2]), `COc1cc(-c2nccc(-c3cccc(NC(=O)c4ccc(CNC[C@@H]5CCC(=O)N5)cn4)c3C)c2Cl)ccc1CNC1CCOCC1` [Example 748, (S)—N-(3-(3-chloro-2-(3-methoxy-4-(((tetrahydro-2H-pyran-4-yl)amino)methyl)phenyl)pyridin-4-yl)-2-methylphenyl)-5-((((5-oxopyrrolidin-2-yl)methyl)amino)methyl)picolinamide] gave a pEC50 of 6.00.

For the compound `COc1cc(-c2nccc(-c3cccc(NC(=O)c4ccc(CNC[C@@H]5CCC(=O)N5)cn4)c3C)c2Cl)ccc1CNCCO` [Example 750, (S)—N-(3-(3-Chloro-2-(4-(((2-hydroxyethyl)amino)methyl)-3-methoxyphenyl)pyridin-4-yl)-2-methylphenyl)-5-((((5-oxopyrrolidin-2-yl)methyl)amino)methyl)picolinamide], on human PD-L1 (setting [2]), the pEC50 was 6.15.

Consider `CNCc1ccc(C(=O)Nc2cccc(-c3ccnc(-c4ccc(CNC[C@@H]5CCC(=O)N5)c(OC)c4)c3Cl)c2Cl)nc1` [Example 751, (S)—N-(2-Chloro-3-(3-chloro-2-(3-methoxy-4-((((5-oxopyrrolidin-2-yl)methyl)amino)methyl)phenyl)pyridin-4-yl)phenyl)-5-((methylamino)methyl)picolinamide], for which the pEC50 on human PD-L1 (setting [2]) is 8.25. Against the preceding compound, the pEC50 is 2.10 log units higher.

At human PD-L1 (setting [2]), `COc1cc(-c2nccc(-c3cccc(NC(=O)c4ccc(C(=O)O)cn4)c3Cl)c2Cl)ccc1CNC[C@@H]1CCC(=O)N1` [Example 752, (S)-6-((2-Chloro-3-(3-chloro-2-(3-methoxy-4-((((5-oxopyrrolidin-2-yl)methyl)amino)methyl)phenyl)pyridin-4-yl)phenyl)carbamoyl)nicotinic acid] gave a pEC50 of 5.99.

In turn, `COc1cc(-c2nccc(-c3cccc(NC(=O)c4ccc(CNCCO)cn4)c3Cl)c2Cl)ccc1CN1CC2(CNC(=O)C2)C1` [Example 754, N-(2-Chloro-3-(3-chloro-2-(3-methoxy-4-((7-oxo-2,6-diazaspiro[3.4]octan-2-yl)methyl)phenyl)pyridin-4-yl)phenyl)-5-(((2-hydroxyethyl)amino)methyl)picolinamide] had a pEC50 at human PD-L1 (setting [2]) of 8.04. This pEC50 is 2.05 log units higher than that of the compound before.

The values are drawn from patent US20240246964A1 (Arbutus Biopharma Corporation, priority 2021, published 2024).
